# Measurements reported in patent publication US7754202B1, “Methods of controlling cell differentiation and growth using a fusion protein and a drug” (Stanford University, priority 1998, dated 2010).
# Several values for one entry are separate records, joined by “and”; a condition that tells them apart may be missing. Equal values may be shown once.
# Columns and labels:
# [1] = system: primary murine bone marrow cells expressing the F36Vmpl fusion protein; experiment: Response of marrow cells expressing F36Vmpl (MFM vector) to AP20187; assay type: cell-based; conditions: compared with FK1012 (data not shown)
# Description: A MSCVneo-based retroviral vector encoding a fusion protein identical to F1mpl except for the presence of the F36V mutation was built and tested. This vector, MFM (FIG. 4), has been used to derive a genetically stable, high titer ecotropic producer cell line using the methods described in Example 5.
# [2] = system: genetically modified progenitor cells in the femur; experiment: In vivo selection with MFM vector: G418 resistant colonies in the femur (bone marrow aspirates); set-up: species or system B6D2F1 mice
# Experimental: (§1) Marrow cells from B6D2F1 mice were transduced as follows: fluorouracil, 150 mg/kg, was injected intraperitoneally into female B6D2F1 mice. Forty-eight hours later, marrow cells were harvested and cultured for 48 hours in DMEM containing 16% fetal calf serum, 5% IL-3 conditioned medium, 100 ng/ml recombinant IL-6, and 50 ng/ml recombinant murine stem cell factor in a 37° C., 5% CO2 incubator. After 48 hours of prestimulation, cells were transferred onto irradiated (1500 cGy) producer cells and cocultivated using identical growth conditions except for the addition of polybrene (8 μg per ml). The producer cells generate retroviral particles containing the MFM vector that are able to infect the bone marrow cells. Therefore, the MFM retrovirus is introduced into the bone marrow cells during the period of cocultivation. Marrow cells were harvested after 48 hours of cocultivation and 8×10^6 cells were injected into each of 10 lethally irradiated (1050 cGy) B6D2F1 mice. Immediately following transplantation, five mice received intraperitoneal injections of AP20187 daily at a dose of 2 mg/kg/day for forty consecutive days. Five control mice received daily injections of the drug diluent (see below) without AP20187.
# (§2) AP20187 was prepared as follows: Drug was solubilized in ethanol, then PEG 400 was added. Finally, a mixture of water and Tween 80 was added to achieve final concentrations of ethanol of 4%, PEG400 10% and Tween 1.4%.
# The presence of the neo gene in the MFM vector allows the frequency of genetically modified progenitor cells to be determined by performing clonogenic assays either in the presence or absence of G418. After 32 days of drug administration, bone marrow aspirates were performed and the frequency of clonogenic progenitor cells was determined. Results are shown as follows:
# Sufficient numbers of bone marrow cells were obtained on the aspirates of one control and one drug treated mouse (numbers 191 and 195, respectively) to permit Southern analysis.
# spleen = experiment: In vivo selection with MFM vector: spleen weight; set-up: species or system B6D2F1 mice; conditions: after 40 days
# Experimental: as §1, §2
# (§3) After 40 days of drug administration, splenectomies were performed; spleens were weighed and spleen cells were tested in clonogenic assays to determine the frequency of genetically modified progenitor cells.
# [3] = system: genetically modified progenitor cells in the spleen; experiment: In vivo selection with MFM vector: G418 resistant colonies in the spleen; set-up: species or system B6D2F1 mice; conditions: after 40 days
# Experimental: as §1, §2, §3
# [4] = system: hematopoietic cell subsets in the spleen; experiment: In vivo selection with MFM vector: flow cytometry of hematopoietic cell subsets in the spleen; set-up: species or system B6D2F1 mice; TER119 (erythroid) cells in the spleen / CD11b (myeloid) cells in the spleen / CD41 (megakaryocytic) cells in the spleen / CD3 (T-lymphoid) cells in the spleen / B220 (B-lymphoid) cells in the spleen: unit not given here
# Experimental: as §1, §2
# To characterize the types of cells expanding in response to AP20187, flow cytometry was performed using antibodies directed against myeloid (CD11b), erythroid (TER119), megakaryocytic (CD41), B-lymphoid (B-220) and T-lymphoid (CD3) cells.
# [5] = system: MH cells expressing chimeric receptors; experiment: DNA synthesis (BrdU incorporation) in MH cells expressing FKBP chimeric receptors; assay type: cell-based, monkey (Macaca fascicularis); conditions: serum-starved MH cells, 3 days after AP20187 addition; compared with nonspecific induction by AP20187 alone
# Experimental: FIG. 5. DNA synthesis in MH cells expressing FKBP chimeric receptors after stimulation with AP20187. 5×10^4 MH cells were plated per well (24 well plate) in the presence of FCS. 24 hours after retrovirus infection, culture medium was replaced by serum-free medium and cells were starved for 6 days. At this time point AP20187 was added to one set of cells and BrdU incorporation was measured three days after induction. BrdU labeled cells were counted in four independent areas for each sample (N=3) and expressed as the percentage of BrdU (+) cells. The (+) and (−) symbols after the chimeric gene designations indicates the presence and absence of AP20187, respectively. […]
# To test the proliferation properties of MH cells, cellular DNA replication based on incorporation of BrdU was analyzed. […] After this, BrdU labeled DNA was detected in cell nuclei by immuno-histochemistry with BrdU-specific antibodies.
# Retroviruse vectors expressing the chimeric receptors provided in TABLE 9 were prepared as a means for gene transfer into hepatocytes. […] Next, the percentage of MH cells grown in the presence of FCS and HGF that can be transduced by an amphotropic β-Gal virus after an incubation of 5 hours at an MOI of 1 cfu per cell was determined. […] At this time point AP20187 was added to one set of cells and BrdU incorporation was measured three days after induction. […]
# endogenous FKBP12 = endogenous FKBP12 (Homo sapiens, UniProt P62942); experiment: Binding to endogenous FKBP12
# endogenous FKBP12, sequence (P62942 whole entry, species assumed): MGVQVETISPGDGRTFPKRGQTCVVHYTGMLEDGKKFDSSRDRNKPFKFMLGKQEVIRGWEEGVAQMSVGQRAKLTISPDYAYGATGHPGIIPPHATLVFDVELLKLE
# cells = experiment: Immunosuppressive activity or other toxicity to cells; assay type: cell-based; conditions: in experiments to date
# [6] = individual mice, 2 mg/kg/day i.p., 2 mg/kg/day
# [7] = group mean, spleen, flow cytometry
# [8] = individual mice, flow cytometry, after 40 days
smiles,measurement,setting,value
CC[C@H](C(=O)N1CCCC[C@H]1C(=O)O[C@H](CCc1ccc(OC)c(OC)c1)c1cccc(OCC(=O)NCC(CNC(=O)COc2cccc([C@@H](CCc3ccc(OC)c(OC)c3)OC(=O)[C@@H]3CCCCN3C(=O)[C@@H](CC)c3cc(OC)c(OC)c(OC)c3)c2)CN(C)C)c1)c1cc(OC)c(OC)c(OC)c1 [AP20187],proliferative and differentiative responses,[1],indistinguishable from those we have observed using FK1012
same,mean number of G418 resistant colony forming cells in the femur relative to control group,"[2]; after 32 days, did not achieve statistical significance",approximately 2 fold
same,"Percentage of G418 Resistant Colonies (femur), Mean","[2]; group mean (+/−), 2 mg/kg/day i.p., after 32 days",20.9 (+/−13.3) %
same,Percentage of G418 Resistant Colonies (femur),"[2]; individual mice, 2 mg/kg/day i.p., after 32 days of drug administration, 2 mg/kg/day",39.3% and 14.7% and 17.7% and 28.1% and 4.6%
same,proviral signal by Southern analysis of bone marrow aspirates,[2]; one drug treated mouse (195) versus one control (191),detectable only in the mouse that had received AP20187
same,"Spleen Weight, Mean",spleen; group mean (+/−),208.9 (+/−43.5) mg
same,Spleen Weight,spleen; [6],200 mg and 190 mg and 279 mg and 213 mg and 162 mg
same,spleen size,spleen; versus control group,significant increase in spleen size
same,"G418 Resistant (spleen colonies), Mean",[3]; group mean (+/−),9 (+/−8.7%)
same,G418 Resistant (spleen colonies),[3]; [6],4.1% and 5.2% and 6.4% and 24.5% and 4.8%
same,percentage of genetically modified progenitor cells in the spleen,[3]; versus control group,increased percentage of genetically modified progenitor cells in the spleen that did not achieve statistical significance
same,"B220, mean (standard deviation)",[4]; [7],29.2 (5.1)
same,"CD3, mean (standard deviation)",[4]; [7],12.2 (8.2)
same,"CD11b, mean (standard deviation)",[4]; [7],10.2 (2.5)
same,"CD41, mean (standard deviation)",[4]; [7],1.4 (1.1)
same,"TER119, mean (standard deviation)",[4]; [7],27.7 (8.1)
same,B220 (B-lymphoid) cells in the spleen,[4]; [8],31.6 and 24.5 and 23.0 and 33.2 and 33.8
same,CD3 (T-lymphoid) cells in the spleen,[4]; [8],24.4 and 8.4 and 4.8 and 6.5 and 16.8
same,CD11b (myeloid) cells in the spleen,[4]; [8],9.5 and 7.8 and 12.8 and 8.2 and 13.0
same,CD41 (megakaryocytic) cells in the spleen,[4]; [8],0.7 and 0.5 and 1.1 and 3.3 and 1.4
same,TER119 (erythroid) cells in the spleen,[4]; [8],21.0 and 28.2 and 40.8 and 27.4 and 21.1
same,change in hematopoietic cell subsets in the spleen,[4]; versus control group,increase in myeloid (CD11b-positive) and erythroid (TER119-positive) cells in the spleen
same,effect on DNA proliferation (BrdU incorporation),[5],clear effect on DNA proliferation in MH expressing chimeric receptors
same,in vivo half life,In vivo half life,9 h
same,binding to endogenous FKBP12,endogenous FKBP12,does not bind to endogenous FKBP12
same,immunosuppressive activity or other toxicity to cells,cells,no immunosuppressive activity or other toxicity to cells
